Earlier results on one substance are cited in US20110021470A1, “METHODS FOR TREATING CANCER COMPRISING THE ADMINISTRATION OF A VITAMIN D COMPOUND AND AN ADDITIONAL THERAPEUTIC AGENT, AND COMPOSITIONS CONTAINING THE SAME” (Cougar Biotechnology, Inc., priority 2006, published 2011).

Series [1] deals with cell growth and differentiation.
The conditions of series [2]: in vivo.
For series [3] the following is noted: oral lipid formulations (medium chain triglyceride, long chain triglyceride) compared with a formulation containing propylene glycol.
The conditions of series [4]: in vivo. This is another data set of the same source.

Take “1(S),3(R)-dihydroxy-20(R)-(5′-ethyl-5′-hydroxyhepta-1′(E),3′(E)-dien-1′-yl)-9,10-secopregna-5(Z),7(E),-10(19)-triene [Seocalcitol]”: in series [1], the anti-proliferative activity result is reported as “strong”. The “potency in regulation of cell growth and differentiation relative to 1α,25-dihydroxycholecalciferol” value in series [1] (in vitro and in vivo, versus 1α,25-dihydroxycholecalciferol) is on record as 50-200 times more potent. For the same substance, in series [2], the biological half-life entry is on record as “suitable for systematic use”. For the same substance, the bioavailability of seocalcitol entry in series [3] is reported as “twofold higher”. Moreover, the calcemic activity result in series [4] is given as “low”. Further, the “calcemic activity relative to 1α,25-dihydroxycholecalciferol” value in series [4] (versus 1α,25-dihydroxycholecalciferol) is given as “approximately 50 % weaker”.
